The values below come from the supplement of paper PMC11061612.

Holding throughout (experiment): Bliss excess, mean over the matrix (fraction); higher = more synergy
One experiment concerns C32 (Melanoma). In short, it runs like this:
(§1)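 Bliss excess equals the observed combination effect minus the expected value EA + EB − EA·EB, where EA and EB are the effects of each agent alone. Combination Emax is the second-highest inhibition within the matrix. Inhibition was scaled from CellTiter-Glo 2.0 luminescence, with 0 set by vehicle wells and 1 by blank wells, after 72 hours of two-drug dosing of cells plated in 1536-well plates.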

The subject of experiment [1] is MRK-nu-1 (Breast Carcinoma). Put shortly: as §1
The test system of another experiment is MG-63 (Osteosarcoma). Put shortly: as §1
In experiment [2] the test system is RPMI-8402 (T-Lymphoblastic Leukemia). Put shortly: as §1
The test system of experiment [3] is SW1463 (Colorectal Carcinoma). In short, it runs like this: as §1
Experiment [4] deals with SBC-3 (Small Cell Lung Carcinoma). In short, it runs like this: as §1
Experiment [5] deals with MDA-MB-175-VII (Breast Carcinoma). Put shortly: as §1
Experiment [6] relates to NCI-H1435 (Non-Small Cell Lung Carcinoma). Put shortly:
as §1

The test system of experiment [7] is COR-L105 (Lung Adenocarcinoma). Put shortly: as §1
For experiment [8], the system named is L-363 (Plasma Cell Myeloma). In short, it runs like this: as §1
In experiment [9] the test system is NCI-H2009 (Lung Adenocarcinoma). In short, it runs like this:
as §1

The subject of experiment [10] is KNS-62 (Squamous Cell Lung Carcinoma). Put shortly:
as §1

The subject of experiment [11] is NCI-H2023 (Non-Small Cell Lung Carcinoma). Put shortly:
as §1

For experiment [12], the system named is OVKATE (Ovarian Carcinoma). Put shortly:
as §1

Experiment [13] has as its system BC-1 (B-Cell Non-Hodgkin's Lymphoma). In short, it runs like this:
as §1

The subject of another experiment is SK-MEL-24 (Melanoma). Put shortly: as §1
The test system of experiment [14] is CAL-85-1 (Breast Carcinoma). In short, it runs like this:
as §1

The subject of the next experiment is GCIY (Gastric Carcinoma). Put shortly:
as §1

A further experiment concerns NCI-H2452 (Mesothelioma). Put shortly: as §1
A further experiment has as its system A375 (Melanoma). In short, it runs like this:
as §1

`Cc1cc2ncnn2cc1Nc1ncc2c(n1)n(C1CCOCC1)c(=O)n2C` [AZD7648] + COc1cc([C@@H]2c3cc4c(cc3[C@@H](O[C@@H]3O[C@@H]5CO[C@@H](C)O[C@H]5[C@H](O)[C@H]3O)[C@H]3COC(=O)[C@H]23)OCO4)cc(OC)c1O [Etoposide] (first compound max 10 µM, 7x7, partner max 10 µM): the Bliss excess in the experiment with C32 (Melanoma) is 0.0402; in [1], 0.0829; in the experiment with MG-63 (Osteosarcoma) it was 0.0878; in experiment [2] it was 0.0847; in experiment [3], -0.0081; in [4], 0.119. Moreover, the Bliss excess in experiment [5] was found to be 0.0478; in [6], 0.0043; in experiment [7], 0.0299; in experiment [8] it was 0.0582; in experiment [9], 0.116; in [10] it was 0.056. Besides, the Bliss excess was 0.0401 in [11]; -0.0214 in experiment [12]; 0.0896 in experiment [13]; 0.0438 in the experiment with SK-MEL-24 (Melanoma); 0.0483 in experiment [14]; 0.125 with GCIY (Gastric Carcinoma). For the same compound, the figures for the Bliss excess with NCI-H2452 (Mesothelioma) and with A375 (Melanoma) were 0.0449 and 0.119, respectively.

`Cc1cc2ncnn2cc1Nc1ncc2c(n1)n(C1CCOCC1)c(=O)n2C` [AZD7648] + C[C@@H]1COCCN1C2=NC(=NC(=C2)C3(CC3)[S@](=N)(=O)C)C4=C5C=CNC5=NC=C4 [AZD6738] (first compound max 10 µM, 7x7, partner max 10 µM): the Bliss excess is -0.0021 with C32 (Melanoma); 0.0054 in experiment [1]; 0.0557 in the experiment with MG-63 (Osteosarcoma); 0.0216 in [2]; 0.0087 in experiment [3]; 0 in [4]. In addition, the Bliss excess was 0.0441 in experiment [5]; 0.0536 in experiment [6]; -0.0511 in [7]; 0.0096 in [8]; 0.0494 in [9]; 0.0778 in [10]. The Bliss excess in [11] was 0.0722; in [12], 0.0232; in [13] it was -0.016; with SK-MEL-24 (Melanoma), 0.0523; in [14], 0.0307; in the experiment with GCIY (Gastric Carcinoma), 0.0524. Moreover, the Bliss excess with NCI-H2452 (Mesothelioma) amounted to 0.0084; in the experiment on A375 (Melanoma), 0.0301.

For `Cc1cc2ncnn2cc1Nc1ncc2c(n1)n(C1CCOCC1)c(=O)n2C` [AZD7648] + O=C(c1cc(Cc2n[nH]c(=O)c3ccccc23)ccc1F)N1CCN(C(=O)C2CC2)CC1 [Olaparib] (first compound max 10 µM, 7x7, partner max 10 µM), the Bliss excess in the experiment on C32 (Melanoma) is -0.0375; in experiment [1], -0.0615; with MG-63 (Osteosarcoma), 0.0014; in [2], -0.0158; in experiment [3], -0.0417; in experiment [4], -0.0148. For the same compound, the Bliss excess in experiment [5] is -0.0525; in experiment [6] it was -0.0366; in experiment [7] it was -0.034; in [8], 0.0266; in experiment [9] it was -0.0372; in experiment [10] it was -0.0507. For the same compound, the Bliss excess in [11] is -0.0892; in experiment [12], -0.0688; in experiment [13] it was 0.0015; with SK-MEL-24 (Melanoma) it was -0.0533; in [14], -0.057; with GCIY (Gastric Carcinoma), -0.0554. Further, the Bliss excess is -0.0664 in the experiment with NCI-H2452 (Mesothelioma) and -0.0339 with A375 (Melanoma).

As for `Cc1nc(Nc2ncc(C(=O)Nc3c(C)cccc3Cl)s2)cc(N2CCN(CCO)CC2)n1` [Dasatinib] + CC(=O)Nc1cccc(-n2c(=O)n(C3CC3)c(=O)c3c(Nc4ccc(I)cc4F)n(C)c(=O)c(C)c32)c1 [Trametinib] (first compound max 2 µM, 7x7, partner max 1 µM), the Bliss excess was -0.0198 in the experiment on C32 (Melanoma); -0.0688 in experiment [1]; -0.0066 in the experiment with MG-63 (Osteosarcoma); 0.0053 in [2]; -0.0659 in experiment [3]; 0.0453 in experiment [4]. In addition, the Bliss excess in [5] was -0.132; in experiment [6], 0.0975; in experiment [7] it was 0.0567; in experiment [8], -0.0221; in experiment [9] it was 0.0589; in experiment [10], -0.0815. For the same compound, the Bliss excess was -0.0228 in experiment [11]; -0.0147 in experiment [12]; 0.0858 in experiment [13]; 0.141 in the experiment with SK-MEL-24 (Melanoma); 0.0959 in experiment [14]; 0.052 in the experiment on GCIY (Gastric Carcinoma). The Bliss excess with NCI-H2452 (Mesothelioma) is -0.0671; with A375 (Melanoma), 0.0736.

Turning to `COc1cc2ncnc(Nc3ccc(F)c(Cl)c3)c2cc1OCCCN1CCOCC1` [Gefitinib] + CC(C)n1c(=O)n(C)c2cnc3cc(F)c(-c4ccc(OCCCN5CCCCC5)nc4)cc3c21 [AZD1390] (first compound max 10 µM, 7x7, partner max 0.3 µM), the Bliss excess in the experiment on C32 (Melanoma) is -0.0368; in experiment [1] it was 0.0492; in the experiment with MG-63 (Osteosarcoma), -0.0772; in experiment [2], -0.0801; in experiment [3], 0.0109; in [4], -0.0501. In addition, the Bliss excess in experiment [5] is -0.0191; in experiment [6], -0.0289; in experiment [7], -0.0374; in experiment [8], -0.0135; in experiment [9], -0.0519; in experiment [10] it was -0.0783. In addition, the Bliss excess in [11] is -0.0463; in experiment [12] it was -0.0386; in [13] it was -0.0279; in the experiment on SK-MEL-24 (Melanoma) it was -0.0831; in [14], -0.0236; in the experiment on GCIY (Gastric Carcinoma), 0.0145. In addition, the Bliss excess is -0.108 in the experiment on NCI-H2452 (Mesothelioma) and -0.0544 in the experiment with A375 (Melanoma).

For `COc1cc2c(cc1OCCCCCOc1cc3c(cc1OC)C(=O)N1C=C(C)C[C@H]1C=N3)N=C[C@@H]1CC(C)=CN1C2=O` [SG3199] + O=C(c1cc(Cc2n[nH]c(=O)c3ccccc23)ccc1F)N1CCN(C(=O)C2CC2)CC1 [Olaparib] (first compound max 0.001 µM, 7x7, partner max 10 µM), the Bliss excess in the experiment with C32 (Melanoma) is -0.0373; in experiment [1] it was -0.0642; with MG-63 (Osteosarcoma), -0.0041; in experiment [2], -0.0259; in experiment [3], -0.0393; in [4] it was -0.0516. The Bliss excess was -0.0489 in experiment [5]; -0.0584 in [6]; -0.0371 in experiment [7]; -0.0123 in experiment [8]; -0.0297 in experiment [9]; -0.0464 in experiment [10]. Moreover, the Bliss excess is -0.0562 in experiment [11]; -0.0653 in experiment [12]; -0.0102 in [13]; -0.0576 in the experiment with SK-MEL-24 (Melanoma); -0.0407 in experiment [14]; -0.0152 in the experiment with GCIY (Gastric Carcinoma). Further, the Bliss excess is -0.117 in the experiment on NCI-H2452 (Mesothelioma) and -0.0304 in the experiment with A375 (Melanoma).
